Measurements: PubChem BioAssay (NCI)
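GI50: concentration for 50% inhibition of growth. TGI: concentration producing complete growth inhibition.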

What was measured:
Assay in all cases: DTP human tumour cell line panel, 384-well format
[1] = system: HS 578T breast
[2] = system: HL-60(TB) leukemia
[3] = system: SF-295 CNS
[4] = system: EKVX NSCLC
[5] = system: IGROV1 ovarian
[6] = system: RXF 393 renal
[7] = system: SW-620 colon
[8] = system: MCF7 breast
[9] = system: COLO 205 colon
[10] = system: KM12 colon
[11] = system: HT29 colon
[12] = system: UACC-62 melanoma
[13] = system: NCI-H460 NSCLC

Compound: C=CCN(/C=C1\C(=O)O[C@H](COC)[C@@]2(C)C1=C(O)C(=O)C1=C2[C@H](OC(C)=O)C[C@]2(C)C(=O)CC[C@@H]12)CC=C
- GI50 [1]: 1150 nM
- TGI [1]: 6930 nM
- GI50 [2]: 156 nM
- TGI [2]: 983 nM
- GI50 [3]: 2120 nM
- TGI [3]: 18700 nM
- GI50 [4]: 504 nM
- TGI [4]: 13600 nM
- GI50 [5]: 406 nM
- TGI [5]: 5260 nM
- GI50 [6]: 82.8 nM
- TGI [6]: 650 nM
- GI50 [7]: 7450 nM
- TGI [7]: > 100000 nM
- GI50 [8]: 441 nM
- TGI [8]: 19400 nM
- GI50 [9]: 793 nM
- TGI [9]: 4640 nM
- GI50 [10]: 2660 nM
- TGI [10]: 96300 nM
- GI50 [11]: 1080 nM
- TGI [11]: 21700 nM
- GI50 [12]: 890 nM
- TGI [12]: 8770 nM
- GI50 [13]: 668 nM
- TGI [13]: 90100 nM
